For orientation: GI50 means the concentration giving 50% growth inhibition. Usually TGI stands for the concentration at which net growth stops. Read a high TGI as less potent growth arrest.

Among the test systems are A498 renal; HCT-15 colon; IGROV1 ovarian; NCI-H23 lung; RPMI-8226 leukemia; SNB-75 CNS; SR leukemia; T-47D breast; U251 CNS; SF-295 CNS.
Common to all, as to assay: DTP human tumour cell line panel, 48 h

Structures are written as SMILES. Values joined by “and” are separate entries in the source; they are usually repeats but may differ in a detail not shown here. Equal entries are not always repeated.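 Method: 48-hour compound exposure of cells in 96-well plates, five concentrations, linear interpolation of endpoints. GI50: concentration for 50% inhibition of growth. TGI marks complete inhibition of growth.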

As to `N#Cc1c(N2CCOCC2)nc(=S)[nH]c1-c1ccccc1`, the GI50 was 3.66 µM in the assay with A498 renal; 24.9 µM in the assay with HCT-15 colon; 3.15 µM in the assay with IGROV1 ovarian; 34.5 µM in the assay on NCI-H23 lung; 13.3 µM in the assay with RPMI-8226 leukemia; 6.12 µM in the assay with SNB-75 CNS. Further, the results for the GI50 with SR leukemia, in the assay with T-47D breast and in the assay with U251 CNS were 29 µM, 4.15 µM and 60.1 µM, respectively. The TGI in the assay on A498 renal is 26.8 µM; with HCT-15 colon it was > 100 µM; in the assay with IGROV1 ovarian, > 100 µM; with NCI-H23 lung, > 100 µM; in the assay on RPMI-8226 leukemia it was > 100 µM; in the assay with SNB-75 CNS it was > 100 µM. Also, the TGI in the assay with SR leukemia, with T-47D breast and in the assay with U251 CNS was > 100 µM in each case.
On to `O=c1[nH]c(=O)c2cc3cc(C4CC(O)C(CO)O4)ccc3cc2[nH]1` (stereo unspecified), for which the GI50 in the assay on A498 renal is > 100 µM; in the assay with HCT-15 colon it was > 100 µM; in the assay on IGROV1 ovarian, 1.7 µM; in the assay with NCI-H23 lung, > 100 µM; in the assay with RPMI-8226 leukemia it was > 100 µM; in the assay with SF-295 CNS it was > 100 µM. Moreover, the figures for the GI50 with SNB-75 CNS, in the assay on T-47D breast and in the assay with U251 CNS were 34.5 µM, > 100 µM and > 100 µM, respectively. For the same molecule, the TGI with A498 renal, in the assay on HCT-15 colon, in the assay with IGROV1 ovarian, with NCI-H23 lung, with RPMI-8226 leukemia and in the assay with SF-295 CNS was > 100 µM in each case. Further, the TGI in the assay with SNB-75 CNS, in the assay on T-47D breast and with U251 CNS was > 100 µM in each case.
Take `CN(C)CCCCC(C(=O)CBr)(c1ccccc1)c1ccccc1`: the GI50 with HCT-15 colon was 1.64 µM; in the assay on IGROV1 ovarian it was 3.6 µM; in the assay on NCI-H23 lung it was 2.81 µM; in the assay on RPMI-8226 leukemia, 1.96 µM; in the assay on SF-295 CNS, 5.56 µM; in the assay on SNB-75 CNS it was 1.87 µM. For the same molecule, the GI50 in the assay on SR leukemia is 2.12 µM; in the assay on T-47D breast, 1.14 µM; in the assay with U251 CNS, 3.07 µM. Besides, the TGI in the assay on HCT-15 colon came out at 3.37 µM; in the assay with IGROV1 ovarian, 15.6 µM; in the assay with NCI-H23 lung it was 10.8 µM; in the assay on RPMI-8226 leukemia it was 5.53 µM; with SF-295 CNS it was 19.2 µM; with SNB-75 CNS it was 13.9 µM. For the same molecule, the figures for the TGI with SR leukemia, with T-47D breast and with U251 CNS were 7.02 µM, 3.71 µM and 11.5 µM, respectively.
`CCOC(=O)c1cc(C(=O)c2cc(OC)c(OC)c(OC)c2)n2c1ccc1ccccc12`: the GI50 in the assay with A498 renal is 0.0362 µM; in the assay on HCT-15 colon, 0.137 µM; with IGROV1 ovarian it was 0.353 µM; in the assay with NCI-H23 lung, 0.478 µM; with RPMI-8226 leukemia, 0.378 µM; in the assay on SNB-75 CNS it was 0.0599 µM. For the same molecule, the figures for the 50% growth inhibitory concentration (GI50) with SR leukemia, in the assay on T-47D breast and in the assay on U251 CNS were 0.0704 µM, 0.57 µM and 0.428 µM, respectively. Further, the TGI in the assay with A498 renal was 0.316 µM; with HCT-15 colon it was > 100 µM; with IGROV1 ovarian, > 100 µM; in the assay on NCI-H23 lung it was > 100 µM; in the assay on RPMI-8226 leukemia, > 100 µM; in the assay with SNB-75 CNS it was 0.617 µM. Moreover, the TGI in the assay with SR leukemia, with T-47D breast and in the assay with U251 CNS was > 100 µM throughout.
With `Cc1ccc(-c2cc3c4c(nc5ccccc53)C(=O)c3cccnc3-c4n2)cc1`, the GI50 in the assay with A498 renal is 11.8 µM; in the assay on HCT-15 colon, 12.7 µM; with IGROV1 ovarian, 10.7 µM; with NCI-H23 lung, 7.03 µM; in the assay with RPMI-8226 leukemia, 4.18 µM; in the assay with SF-295 CNS, 12.4 µM. The results for the GI50 in the assay on SNB-75 CNS, with T-47D breast and with U251 CNS were 13.1 µM, 22.7 µM and 9.51 µM, respectively. Moreover, the TGI in the assay with A498 renal turned out to be 32.7 µM; in the assay on HCT-15 colon, 49.9 µM; in the assay with IGROV1 ovarian, 55.4 µM; in the assay with NCI-H23 lung, 20.9 µM; in the assay with RPMI-8226 leukemia, 54.9 µM; in the assay with SF-295 CNS, 25.7 µM. Also, the TGI in the assay on SNB-75 CNS is > 53.6 µM; with T-47D breast, 99.4 µM; with U251 CNS, > 66.9 µM.
For `O=C(NC(=O)c1ccccc1[N+](=O)[O-])Nc1ccc(Oc2ncc(Cl)cn2)c([N+](=O)[O-])c1`, the TGI in the assay with A498 renal was 30.3 µM; in the assay with HCT-15 colon, > 95.6 µM; in the assay on IGROV1 ovarian, > 71.8 µM; in the assay on NCI-H23 lung, > 28 µM; in the assay with RPMI-8226 leukemia it was > 100 µM; with SNB-75 CNS, 0.313 µM. For the same molecule, the TGI with SR leukemia was > 100 µM; in the assay on T-47D breast, > 100 µM; in the assay with U251 CNS, > 88.6 µM.
In the case of `COc1cc2c(c(OC)c1OC)-c1ccc(OC)c(=O)cc1[C@@H](NC(C)=O)CC2`, the TGI was > 100 µM and 25.8 µM and 50.4 µM in the assay on HCT-15 colon; > 100 µM in the assay on IGROV1 ovarian; > 100 µM and 217 µM in the assay on RPMI-8226 leukemia; > 100 µM with SR leukemia; > 100 µM in the assay on T-47D breast. For the same molecule, the GI50 is < 0.01 µM with SR leukemia and > 100 µM with T-47D breast.
For the molecule `N/C(=N/N=C/c1ccccc1)N/N=C\c1ccccc1`, the GI50 in the assay with A498 renal is 6.03 µM; with HCT-15 colon, 3.72 µM; in the assay with IGROV1 ovarian, 8.6 µM; with NCI-H23 lung, 6.78 µM; in the assay with RPMI-8226 leukemia, 5.21 µM; in the assay with SF-295 CNS, 3.96 µM. Besides, the GI50 was 9.67 µM in the assay on SNB-75 CNS, 4.73 µM in the assay on T-47D breast and 5.08 µM with U251 CNS. In addition, the TGI in the assay with A498 renal is > 100 µM; in the assay on HCT-15 colon it was 30.3 µM; with IGROV1 ovarian, > 100 µM; in the assay on NCI-H23 lung, > 100 µM; with RPMI-8226 leukemia it was 29.7 µM; in the assay with SF-295 CNS it was 32.4 µM. Further, the TGI in the assay on SNB-75 CNS is > 100 µM; with T-47D breast, > 100 µM; with U251 CNS, 70.9 µM.
`CCCCCCCCCCCCSC1=C(Cl)C(=O)C(OC)=C(OC)C1=O`: the TGI with A498 renal came to 14.1 µM; with HCT-15 colon, 27.8 µM; in the assay with IGROV1 ovarian, 20.7 µM; with NCI-H23 lung, 20.2 µM; in the assay with RPMI-8226 leukemia it was 3.7 µM; with SF-295 CNS, 7 µM. The TGI with SNB-75 CNS worked out at 10.7 µM; in the assay with T-47D breast, 2.73 µM; in the assay on U251 CNS, 12.2 µM. The GI50 was 1.69 µM in the assay on HCT-15 colon; 6.99 µM in the assay on IGROV1 ovarian; 3.36 µM in the assay on NCI-H23 lung; 0.239 µM in the assay with RPMI-8226 leukemia; 2.03 µM with SF-295 CNS; 1.21 µM in the assay with SNB-75 CNS. Further, the GI50 in the assay on T-47D breast was 0.42 µM; in the assay with U251 CNS, 1.57 µM.

Source of the values: PubChem BioAssay (NCI).
